pKi: −log10 of the molar value. Where two headings read alike, the source gives them in different places.
Key:
[1] = target: Myeloid Cell Leukemia 1(Mcl-1) (Homo sapiens (Human), UniProt Q07820); test: Terbium labeled Mcl-1 HTRF binding assay with Cy5-labeled BIM BH3 peptide
Experimental: Terbium labeled Myeloid Cell Leukemia 1(Mcl-1) homogeneous time-resolved fluorescence (HTRF) binding assay utilizing the BIM BH3 peptide (H2N-(C/Cy5Mal) WIAQELRRIGDEFN-OH) as the binding partner for Mcl-1.
This assay evaluated inhibition of the BH3 domain: Mcl-1 interaction by measuring the displacement of Cy5-labeled BIM BH3 peptide (H2N—(C/Cy5Mal) WIAQELRRIGDEFN-OH) in the HTRF assay format.
The following assay and stock buffers were prepared for use in the assay: (a) Stock buffer: 10 mM Tris-HCl, pH=7.5+150 mM NaCl, filtered, sterilized, and stored at 4° C.; and (b) 1× assay buffer, where the following ingredients were added fresh to stock buffer: 2 mM dithiothreitol (DTT), 0.0025% Tween-20, 0.1 mg/mL bovine serum albumin (BSA). The 1×Tb-Mcl-1+Cy5 Bim peptide solution was prepared by diluting the protein stock solution using the 1× assay buffer (b) to 25 pM Tb-Mcl-1 and 8 nM Cy5 Bim peptide.
Using the Acoustic ECHO, 100 nL of 100× test compound(s) were dispensed into individual wells of a white 384-well Perkin Elmer Proxiplate, for a final compound concentration of lx and final DMSO concentration of 1%. Inhibitor control and neutral control (NC, 100 nL of 100% DMSO) were stamped into columns 23 and 24 of assay plate. Into each well of the plate was then dispensed 10 μL of the 1×Tb-Mcl-1+Cy5 Bim peptide solution. The plate was centrifuged with a cover plate at 1000 rpm for 1 minute, then incubated for 60 minutes at room temperature with plates covered.
The TR-FRET signal was read on an BMG PHERAStar FSX MicroPlate Reader at room temperature using the HTRF optic module (HTRF: excitation: 337 nm, light source: laser, emission A: 665 nm, emission B: 620 nm, integration start: 60 μs, integration time: […]).
The BMG PHERAStar FSX MicroPlate Reader was used to measure fluorescence intensity at two emission wavelengths—665 nm and 620 nm—and report relative fluorescence units (RFU) for both emissions, as well as a ratio of the emissions (665 nm/620 nm)*10,000. The RFU values were normalized to percent inhibition as follows:
% inhibition=((NC−IC)−(compound−IC))/(NC−IC))*100
where IC (inhibitor control, low signal)=mean signal of 1×Tb-MCl-1+Cy5 Bim peptide+inhibitor control or 100% inhibition of Mcl-1; NC (neutral control, high signal)=mean signal 1×Tb-MCl-1+Cy5 Bim peptide with DMSO only or 0% inhibition An 11-point dose response curve was generated to determine IC50 values (using GenData) based on the following equation:
Y=Bottom+(Top−Bottom)/(1+10^((IogIC50−X)*HillSlope))
where Y=% inhibition in the presence of X inhibitor concentration; Top=100% inhibition derived from the IC (mean signal of Mcl-1+inhibitor control); Bottom=0% inhibition derived from the NC (mean signal of Mcl-1+DMSO); Hillslope=Hill coefficient; and IC50=concentration of compound with 50% inhibition in relation to top/neutral control (NC).
In this assay [L]=8 nM and Kd=10 nM

[2] = system: MOLP-8 human multiple myeloma cell line; test: Caspase-Glo 3/7 assay in MOLP-8 cells; type: cell-based; details: Caspase-Glo 3/7, 2 hours incubation, averaged over all runs on all batches, read-out: MOLP8 AC50
Excerpt: MCL-1 is a regulator of apoptosis and is highly over-expressed in tumor cells that escape cell death. The assay evaluates the cellular potency of small-molecule compounds targeting regulators of the apoptosis pathway, primarily MCL-1, Bfl-1, Bcl-2, and other proteins of the Bcl-2 family. Protein-protein inhibitors disrupting the interaction of anti-apoptotic regulators with BH3-domain proteins initiate apoptosis.
The Caspase-Glo® 3/7 Assay is a luminescent assay that measures caspase-3 and -7 activities in purified enzyme preparations or cultures of adherent or suspension cells. The assay provides a proluminescent caspase-3/7 substrate, which contains the tetrapeptide sequence DEVD. This substrate is cleaved to release aminoluciferin, a substrate of luciferase used in the production of light. Addition of the single Caspase-Glo® 3/7 Reagent in an “add-mix-measure” format results in cell lysis, followed by caspase cleavage of the substrate and generation of a “glow-type” luminescent signal.
This assay uses the MOLP-8 human multiple myeloma cell line, which is sensitive to MCL-1 inhibition.
Cell cultures were maintained between 0.2 and 2.0×10^6 cells/mL. The cells were harvested by collection in 50 mL conical tubes. The cells were then pelleted at 500 g for 5 mins before removing supernatant and resuspension in fresh pre-warmed culture medium. The cells were counted and diluted as needed.
The assay reagent was prepared by transferring the buffer solution to the substrate vial and mixing. The solution may be stored for up to 1 week at 4° C. with negligible loss of signal.
Compounds were delivered in assay-ready plates (Proxiplate) and stored at −20° C. Assays always include 1 reference compound plate containing reference compounds. The plates were spotted with 40 nL of compounds (0.5% DMSO final in cells; serial dilution; 30 μM highest conc. 1/3 dilution, 10 doses, duplicates). The compounds were used at room temperature and 4 μL of pre-warmed media was added to all wells except column 2 and 23. The negative control was prepared by adding 1% DMSO in media. The positive control was prepared by adding the appropriate positive control compound in final concentration of 60 μM in media. The plate was prepared by adding 4 μL negative control to column 23, 4 μL positive control to column 2 and 4 μL cell suspension to all wells in the plate. The plate with cells was then incubated at 37° C. for 2 hours. The assay signal reagent is the Caspase-Glo solution described above, and 8 μL was added to all wells. The plates were then sealed and measured after 30 minutes.
The activity of a test compound was calculated as percent change in apoptosis induction as follows: […]

[3] = first table, [L]=8 nM, Kd=10 nM, before recalibration of the equipment
[4] = obtained after recalibration of the equipment, averaged values over several runs

Myeloid Cell Leukemia 1(Mcl-1), sequence (Q07820 whole entry): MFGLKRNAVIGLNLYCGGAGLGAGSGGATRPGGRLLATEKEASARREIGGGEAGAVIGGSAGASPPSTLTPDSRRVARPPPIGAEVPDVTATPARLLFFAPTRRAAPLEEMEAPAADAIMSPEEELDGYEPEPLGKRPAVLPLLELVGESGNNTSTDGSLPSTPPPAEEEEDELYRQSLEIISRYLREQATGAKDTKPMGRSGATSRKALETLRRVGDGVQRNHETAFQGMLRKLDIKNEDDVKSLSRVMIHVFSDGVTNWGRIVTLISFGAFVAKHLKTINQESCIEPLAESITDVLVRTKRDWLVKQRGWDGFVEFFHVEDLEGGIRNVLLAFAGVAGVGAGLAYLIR

SMILES	pKi [1, 3]	pKi [1, 4]	AC50 ([2]; Homo sapiens, MOLP-8, 2 h) [nM]	AC50 [2] [nM]
COC[C@H]1/C(F)=C/C[C@H](C)[C@@H](C)S(=O)(=O)NC(=O)c2ccc3c(c2)N(C[C@@H]2CCN21)C[C@@]1(CCCc2cc(Cl)ccc21)CO3 [Compound 13]	9.31	9.29	181	–
CC(C)COC[C@H]1/C(F)=C/C[C@H](C)[C@@H](C)S(=O)(=O)NC(=O)c2ccc3c(c2)N(C[C@@H]2CCN21)C[C@@]1(CCCc2cc(Cl)ccc21)CO3 [Compound 15]	8.44	8.63	1860	–
C[C@@H]1[C@@H](C)C/C=C(\F)[C@H](CF)N2CC[C@H]2CN2C[C@@]3(CCCc4cc(Cl)ccc43)COc3ccc(cc32)C(=O)NS1(=O)=O [Compound 31]	–	9.07	512	–
C[C@@H]1[C@@H](C)C/C=C(\F)[C@H](COCC(=O)O)N2CC[C@H]2CN2C[C@@]3(CCCc4cc(Cl)ccc43)COc3ccc(cc32)C(=O)NS1(=O)=O [Compound 17]	9.89	9.77	5990	–
C[C@@H]1[C@@H](C)C/C=C(\F)[C@H](COCC2CCC2)N2CC[C@H]2CN2C[C@@]3(CCCc4cc(Cl)ccc43)COc3ccc(cc32)C(=O)NS1(=O)=O [Compound 26]	8.33	8.54	2520	–
COC[C@@H]1/C=C/C[C@@H](C)[C@@H](C)S(=O)(=O)NC(=O)c2ccc3c(c2)N(C[C@@H]2CCN21)C[C@@]1(CCCc2cc(Cl)ccc21)CO3 [Compound 7]	9.08	9.21	852	–
C[C@@H]1[C@@H](C)C/C=C(\F)[C@H](CO)N2CC[C@H]2CN2C[C@@]3(CCCc4cc(Cl)ccc43)COc3ccc(cc32)C(=O)NS1(=O)=O [Compound 9]	9.66	9.64	144	–
C[C@@H]1[C@@H](C)C/C=C(\F)[C@H](COCC(=O)N2CCOCC2)N2CC[C@H]2CN2C[C@@]3(CCCc4cc(Cl)ccc43)COc3ccc(cc32)C(=O)NS1(=O)=O [Compound 18]	9.62	9.62	448	–
C[C@@H]1[C@@H](C)C/C=C/C(CO)N2CC[C@H]2CN2C[C@@]3(CCCc4cc(Cl)ccc43)COc3ccc(cc32)C(=O)NS1(=O)=O (single isomer, unassigned) [Compound 10]	8.58	–	1490	–
COC[C@H]1/C=C/C[C@@H](C)[C@@H](C)S(=O)(=O)NC(=O)c2ccc3c(c2)N(C[C@@H]2CCN21)C[C@@]1(CCCc2cc(Cl)ccc21)CO3 [Compound 4]	8.70	8.50	740	–
C[C@@H]1[C@@H](C)C/C=C(\F)[C@H](COc2ccccn2)N2CC[C@H]2CN2C[C@@]3(CCCc4cc(Cl)ccc43)COc3ccc(cc32)C(=O)NS1(=O)=O [Compound 11]	8.40	8.67	1490	–
Cc1nc(COC[C@H]2/C(F)=C/C[C@H](C)[C@@H](C)S(=O)(=O)NC(=O)c3ccc4c(c3)N(C[C@@H]3CCN32)C[C@@]2(CCCc3cc(Cl)ccc32)CO4)no1 [Compound 24]	9.20	9.33	234	–
C[C@@H]1[C@@H](C)C/C=C(\F)[C@H](COc2ccccn2)N2CC[C@@H]2CN2C[C@@]3(CCCc4cc(Cl)ccc43)COc3ccc(cc32)C(=O)NS1(=O)=O [Compound 12]	–	8.67	–	520
COCCCOC[C@H]1/C(F)=C/C[C@H](C)[C@@H](C)S(=O)(=O)NC(=O)c2ccc3c(c2)N(C[C@@H]2CCN21)C[C@@]1(CCCc2cc(Cl)ccc21)CO3 [Compound 22]	8.89	9.16	274	–
C[C@@H]1[C@@H](C)C/C=C(\F)[C@H](COCCC2CCOCC2)N2CC[C@H]2CN2C[C@@]3(CCCc4cc(Cl)ccc43)COc3ccc(cc32)C(=O)NS1(=O)=O [Compound 23]	8.82	9.09	545	–
C[C@@H]1[C@@H](C)C/C=C(\F)[C@H](COCC(=O)N2CC(F)(F)C2)N2CC[C@H]2CN2C[C@@]3(CCCc4cc(Cl)ccc43)COc3ccc(cc32)C(=O)NS1(=O)=O [Compound 19]	9.37	9.44	302	–
COCC1/C=C/C[C@H](C)[C@@H](C)S(=O)(=O)NC(=O)c2ccc3c(c2)N(C[C@@H]2CCCN12)C[C@@]1(CCCc2cc(Cl)ccc21)CO3 (single isomer, unassigned) [Compound 8]	8.69	8.58	1330	–
C[C@@H]1[C@@H](C)C/C=C(\F)[C@H](COCCCN2CCOCC2)N2CC[C@H]2CN2C[C@@]3(CCCc4cc(Cl)ccc43)COc3ccc(cc32)C(=O)NS1(=O)=O [Compound 25]	9.70	9.68	231	–
CCOC[C@H]1/C(F)=C/C[C@H](C)[C@@H](C)S(=O)(=O)NC(=O)c2ccc3c(c2)N(C[C@@H]2CCN21)C[C@@]1(CCCc2cc(Cl)ccc21)CO3 [Compound 16]	9.08	–	207	–

From US20240067660A1, “MACROCYCLIC SPIROCYCLE DERIVATIVES AS MCL-1 INHIBITORS” (Janssen Pharmaceutica NV, priority 2019, published 2024)
